Columns and labels:
STING [1] = target: T1, STING (Homo sapiens, UniProt Q86WV6); test: Western Blot analysis for STING degradation (DC50) in HFF-1 cells; type: cell-based; parameters: host or cells: HFF-1 human foreskin fibroblasts; details: 24h; reference protein beta-actin
Protocol: To assess STING degradation in human foreskin fibroblasts HFF-1 cells (ATCC, SCRC-1041) cells were seeded at a density of 60.000 cells/well in 24-well Nunclon Delta surface treated culture plate in DMEM growth medium (supplemented with 10% FBS, 1% Pen-strep). Cells were incubated over-night at 37°C 5% CO2 to allow adhesion. Next day growth medium was renewed and a 5x concentration of test compounds (2.5% DMSO) diluted in growth medium were added to the appropriate well. The final DMSO concentration were 0.5%. Cell culture plates were returned to the incubator for additional 24h.
For cell lysing for Western Blot analysis cell culture plates were brought to ice, supernatant was removed by aspiration and cells washed 2x in ice-cold DPBS. Cells were lysed in 65 µL of RIPA buffer supplemented with cOmplete ULTRA Tablets protease inhibitor cocktail, PIERCE Phosphatase inhibitor mini tablet, Benzonase and 10mM NaF for 20 min on ice. Lysates were collected, cleared by centrifugation (13000xg for 10 min at 4°C). Samples were either analysed directly or stored at -80°C until analysis.
For Western Blotting, total protein concentration in each lysate was determined using PIERCE Gold BCA Assay kit according to manufactures protocol. 6 µg of total protein was mixed with 2x Laemmli buffer containing DTT, boiled for 5 min at 95°C, cooled on ice and loaded into each well of a 4-20% Criterion TGX gel. Proteins were separated by electrophoresis, by running for 1h at 150V. After separation proteins were blotted onto a PVDF membrane by semi-dry transfer using Trans-Blot turbo system at pre-defined BioRad MIDI protocol; 25V, 1A (fixed) for 30 min. Membranes were blocked for 1h in 5% skim milk in TBS-T20 on a rocker at room temperature followed by washing and exposure to primary antibodies against human STING 1:1000 (Cell Signalling, #13647) or loading controls Vinculin 1:1000 (Cell Signalling, #13901) or beta-Actin 1:10000 (Sigma, A5441) all diluted in 5% BSA in TBS-T20. Membranes were probed over night at 4°C on a rocker. Membranes were washed 3x in TBS-T20 followed by exposure to secondary HRP-conjugated anti-rabbit antibody or HRP-conjugated anti-mouse antibody diluted 1:10000 in 5% skim milk in TBS-T20 as appropriate. Membranes were incubated for 1h at room temperature on a rocker, then washed 3x in TBS-T20.
For generating DC50 values, the intensity of individual bands was measured using imaged and expression levels were calculated as a ratio of STING intensities vs. Reference protein intensities and normalized to DMSO control. The normalized ratios were plotted on a XY curve in GraphPad Prism where DC50 was estimated using a 4-parameter non-linear regression fitting curve.

[2] = target: T2, C-terminal domain (CTD) of human STING (Homo sapiens, UniProt Q86WV6); test: STING binding FP assay III; parameters: recombinant human STING protein (155-379); details: 10 nM STING (FP assay III according to the text); read-out: STING binding FP assay II, IC50
T2 sequence (Q86WV6 155-379): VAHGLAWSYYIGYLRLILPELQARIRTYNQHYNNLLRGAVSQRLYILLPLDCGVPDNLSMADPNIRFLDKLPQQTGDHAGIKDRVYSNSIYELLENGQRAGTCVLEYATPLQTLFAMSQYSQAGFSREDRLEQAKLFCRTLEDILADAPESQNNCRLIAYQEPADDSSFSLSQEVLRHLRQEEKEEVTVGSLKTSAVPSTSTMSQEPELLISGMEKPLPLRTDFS
Protocol: (§1) The interaction between molecules and the C-terminal domain (CTD) of human STING was evaluated using a competition binding assay. In this assay, recombinant human STING protein (155-379) and a STING binding fluorescent probe were employed. Upon binding of the probe to STING, the rotation of the fluorescent probe is slowed due to the larger molecular size of the protein-bound complex. As a result, emitted light retains its plane of polarization, leading to an increase in fluorescence polarization. Molecules competing for the probe binding site displace the probe, which leads to rapid randomization of the polarization plane of the emitted light and a subsequent decrease in measured fluorescence polarization signal. Change in polarization was measured, allowing a comparative evaluation of the binding affinities of different compounds to the target protein.
(§2) The assay was performed in 96-well plates (ThermoFisher, cat.# 237108) containing 100µl : 10 µL test compound in 10% DMSO and buffer A (150 mM NaCl, 50 mM HEPES pH 7.5, 1 mM DTT) + 90 µL prepared master mix solution of: 4 nM fluorescein-labelled STING ligand (Probe 1; synthesis described above) in buffer A + 0.055% Tween-20 (v/v) and 35 nM STING in buffer A. Post mixing, plates were agitated at 600rpm and incubated for 20 min at room temperature. Subsequent measurements of the fluorescence polarization signal were made on a BioTek Synergy-H1 plate reader, using a polarization filter; Exc: 485/20 nm, Em: […]) with a gain-setting of 75. IC50 values were determined using a standard non-linear regression four-parameter curve fit in Graphpad Prism.
The procedure for STING binding FP assay III is the same as described for STING binding FP assay I, except for a lower STING concentration. In STING binding FP assay III, a concentration of 10 nM STING in buffer A was used.

[3] = target: T2, C-terminal domain (CTD) of human STING; test: STING binding FP assay II; parameters: recombinant human STING protein (155-379); details: 7 nM STING
Protocol: as §1, §2
The procedure for STING binding FP assay II is the same as described for STING binding FP assay I, except for a lower STING concentration. In STING binding FP assay II, a concentration of 7 nM STING in buffer A was used.

STING [4] = target: T1, STING; test: Western Blot analysis of inhibition of STING activation in HFF-1 cells; type: cell-based; parameters: host or cells: HFF-1 human foreskin fibroblasts; details: for STING, TBK1 and IRF1 phosphorylation: 2 h or 5 h
Protocol: To assess whether S1 STING ligands inhibit STING activation, primary human skin fibroblasts (Figure 5) or HFF-1 cells (Figure 6) were treated with various compounds which comprise only an S1 ligand domain and a Linker domain before undergoing Western Blot analysis as described below.
The cells were lysed and analysed on WB. […] The WB membrane was probed for p-STING, STING, p-IRF3, p-TBK1, and Vinculin.

T1 sequence (Q86WV6 whole entry): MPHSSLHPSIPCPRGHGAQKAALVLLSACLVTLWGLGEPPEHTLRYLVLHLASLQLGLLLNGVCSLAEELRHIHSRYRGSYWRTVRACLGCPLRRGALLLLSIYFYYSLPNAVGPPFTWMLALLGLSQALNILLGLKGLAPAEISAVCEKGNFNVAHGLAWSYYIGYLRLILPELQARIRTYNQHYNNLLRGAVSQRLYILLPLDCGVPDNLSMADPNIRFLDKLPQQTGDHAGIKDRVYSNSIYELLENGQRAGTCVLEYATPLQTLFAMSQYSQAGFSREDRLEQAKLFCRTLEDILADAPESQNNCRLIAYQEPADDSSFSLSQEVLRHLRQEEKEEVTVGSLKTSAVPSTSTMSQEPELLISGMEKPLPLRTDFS

DC50 (STING [1]) [nM]	IC50 [2] [nM]	IC50 [3] [nM]	SMILES	also measured
		2.1	CCn1nc(C)cc1C(=O)N=c1n(C)c2cc(C(N)=O)ccc2n1CCC(CCn1c(=NC(=O)c2cc(C)nn2CC)n(C)c2cc(C(N)=O)ccc21)OCC(=O)NCCOCCOCCNc1cccc2c1C(=O)N(C1CCC(=O)NC1=O)C2=O (stereo not shown) [Example 12, 1-(3-{[N-2-(2-{2-[2-(2,6-Dioxo-3-piperidyl)-1,3-dioxo-4-isoindolinylamino]ethoxy}ethoxy)ethylcarbamoyl]methoxy}-5-{5-carbamoyl-2-[(1-ethyl-3-methyl-5-pyrazolyl)carbonylimino]-3-methyl-2,3-dihydro-1H-1,3-benzimidazol-1-yl}pentyl)-2-[(1-ethyl-3-methyl-5-pyrazolyl)carbonylimino]-3-methyl-2,3-dihydro-1H-1 ,3-benzimidazole-5-carboxamide]	
		7.9	CCn1nc(C)cc1C(=O)N=c1n(C)c2cc(C(N)=O)ccc2n1CCC(CCn1c(=NC(=O)c2cc(C)nn2CC)n(C)c2cc(C(N)=O)ccc21)OCC(=O)NCCOCCOCCOCCOCCC(=O)NCCOCCOCCOCCOCCOc1cccc(C(=O)c2csc([C@@H]3CCCN3C(=O)[C@@H](NC(=O)[C@H](C)NC)C3CCCCC3)n2)c1 (stereo partly shown) [Example 17]	
200 to 1000	2.9		CCn1nc(C)cc1C(=O)N=c1n(C)c2cc(C(N)=O)ccc2n1CCC(CCn1c(=NC(=O)c2cc(C)nn2CC)n(C)c2cc(C(N)=O)ccc21)OCC(=O)NCCOCCOCCOCCOCCC(=O)NCCOCCOCCNc1cccc2c1C(=O)N(C1CCC(=O)NC1=O)C2=O (stereo not shown) [Example 23, N-[2-(2-{2-[2-(2,6-Dioxo-3-piperidyl)-1,3-dioxo-4-isoindolinylamino]ethoxy}ethoxy)ethyl]15-{[(3-{5-carbamoyl-2-[(1-ethyl-3-methyl-5-pyrazolyl)carbonylimino]-3-methyl-2,3-dihydro-1H-1,3-benzimidazol-1-yl}-1-(2-{5-carbamoyl-2-[(1-ethyl-3-methyl-5-pyrazolyl)carbonylimino]-3-methyl-2,3-dihydro-1H-1,3-benzimidazol-1-yl}ethyl)propoxy)methyl]carbonylamino}-4,7,10,13-tetraoxapentadecanamide]	

More lines, now with the values behind:

SMILES	DC50 (STING [1]) [nM]	IC50 [2] [nM]	IC50 [3] [nM]	also measured
CCn1nc(C)cc1C(=O)N=c1n(C)c2cc(C(N)=O)ccc2n1CCC(CCn1c(=NC(=O)c2cc(C)nn2CC)n(C)c2cc(C(N)=O)ccc21)OCC(=O)NCCOCCOCCOCCOCCOCCNc1cccc2c1C(=O)N(C1CCC(=O)NC1=O)C2=O (stereo not shown) [Example 3, 1-(3-{[N-2-(2-{2-[2-(2-{2-[2-(2,6-Dioxo-3-piperidyl)-1,3-dioxo-4-isoindolinylamino]ethoxy}ethoxy)ethoxy]ethoxy}ethoxy)ethylcarbamoyl]methoxy}-5-{5-carbamoyl-2-[(1-ethyl-3-methyl-5-pyrazolyl)carbonylimino]-3-methyl-2,3-dihydro-1H-1 ,3-benzimidazol-1-yl}pentyl)-2-[(1-ethyl-3-methyl-5-pyrazolyl)carbonylimino]-3-methyl-2,3-dihydro-1H-1,3-benzimidazole-5-carboxamide]	200 to 1000			
CCn1nc(C)cc1C(=O)N=c1n(C)c2cc(C(N)=O)ccc2n1CCC(CCn1c(=NC(=O)c2cc(C)nn2CC)n(C)c2cc(C(N)=O)ccc21)OCC(=O)NCCOCCOCCOCCOCCC(=O)NCCOCCNc1cccc2c1C(=O)N(C1CCC(=O)NC1=O)C2=O (stereo not shown) [Example 6, N-(2-{2-[2-(2,6-Dioxo-3-piperidyl)-1,3-dioxo-4-isoindolinylamino]ethoxy}ethyl)15-{[(3-{5-carbamoyl-2-[(1-ethyl-3-methyl-5-pyrazolyl)carbonylimino]-3-methyl-2,3-dihydro-1H-1 ,3-benzimidazol-1-yl}-1-(2-{5-carbamoyl-2-[(1-ethyl-3-methyl-5-pyrazolyl)carbonylimino]-3-methyl-2,3-dihydro-1H-1 ,3-benzimidazol-1-yl}ethyl)propoxy)methyl]carbonylamino}-4,7,10,13-tetraoxapentadecanamide]	200 to 1000	2.6		
CCn1nc(C)cc1C(=O)N=c1n(C)c2cc(C(N)=O)ccc2n1CCC(CCn1c(=NC(=O)c2cc(C)nn2CC)n(C)c2cc(C(N)=O)ccc21)OCC(=O)NCCOCCOCCOCCOCCC(=O)NCCOCCOCCOCCNc1cccc2c1C(=O)N(C1CCC(=O)NC1=O)C2=O (stereo not shown) [Example 11, N-{2-[2-(2-{2-[2-(2,6-Dioxo-3-piperidyl)-1,3-dioxo-4-isoindolinylamino]ethoxy}ethoxy)ethoxy]ethyl}15-{[(3-{5-carbamoyl-2-[(1-ethyl-3-methyl-5-pyrazolyl)carbonylimino]-3-methyl-2,3-dihydro-1H-1,3-benzimidazol-1-yl}-1-(2-{5-carbamoyl-2-[(1-ethyl-3-methyl-5-pyrazolyl)carbonylimino]-3-methyl-2,3-dihydro-1H-1,3-benzimidazol-1-yl}ethyl)propoxy)methyl]carbonylamino}-4,7,10,13-tetraoxapentadecanamide]	< 200	5.3		
CCn1nc(C)cc1C(=O)/N=c1\n(C)c2cc(C(N)=O)ccc2n1CCC(CCn1/c(=N/C(=O)c2cc(C)nn2CC)n(C)c2cc(C(N)=O)ccc21)OCC(=O)NCCOCCOCC(=O)N[C@H](C(=O)N1C[C@H](O)C[C@H]1C(=O)NCc1ccc(-c2scnc2C)cc1)C(C)(C)C (stereo partly shown) [Example 15]			1.7	
CCn1nc(C)cc1C(=O)N=c1n(C)c2cc(C(N)=O)ccc2n1CCC(CCn1c(=NC(=O)c2cc(C)nn2CC)n(C)c2cc(C(N)=O)ccc21)OCC(=O)N1CCOC[C@@H]1c1ccccc1 (stereo partly drawn) [Example A30, 1-(3-{2-[(S)-3-Phenyl-4-morpholinyl]-2-oxoethoxy}-5-{5-carbamoyl-2-[(1-ethyl-3-methyl-5-pyrazolyl)carbonylimino]-3-methyl-2,3-dihydro-1H-1,3-benzimidazol-1-yl}pentyl)-2-[(1-ethyl-3-methyl-5-pyrazolyl)carbonylimino]-3-methyl-2,3-dihydro-1H-1,3-benzimidazole-5-carboxamide]				STING, TBK1 and IRF1 phosphorylation (STING [4]; 5 µM for 15 min prior to 300 nM diABZI): lower compared to cells treated with diABZI c3 alone; STING, TBK1 and IRF1 phosphorylation (STING [4]; 5 µM for 15 min prior to 8 µg/mL cGAMP): lower compared to cells treated with cGAMP alone; phosphorylation of STING, IRF1 or TBK1 (agonism) (STING [4]; compound as single agent, no activation): no phosphorylation of STING, IRF1 or TBK1 was observed

Source: EP4663632A1, “COMPOUNDS USEFUL FOR THE MODULATION OF THE ACTIVITY OF STING” (Sulis Therapeutics ApS, priority 2024, dated 2025)
